# Test results published in patent publication US11083709B2, “Compounds, compositions, and methods of increasing CFTR activity” (Proteostasis Therapeutics, Inc., priority 2015, dated 2021).
# Experiments:
# [1] = molecular target: T1, CFTR in F508/F508del HBEs (Homo sapiens, UniProt P13569, DEL508-508); test: Ussing measurements, F508del/F508del HBEs; format: cell-based; conditions: genotype F508del/F508del
# T1 construct: Activity in F508/F508del HBEs (relative); endogenous in cells; host or cells: primary lung epithelial cells (HBEs), genotype F508/F508del [sic]
# Method: (§1) As discussed above, Ussing measurements were used to measure CFTR activity. In this method, primary lung epithelial cells (hBEs) with a Cystic fibrosis causing class I mutation were differentiated for a minimum of 4 weeks in an air-liquid interface on SnapWell™ filter plates prior to the Ussing measurements. Cells were apically mucus-washed for 30 minutes prior to treatment with compounds. The basolateral media was removed and replaced with media containing the compound of interest diluted to its final concentration from DMSO or aqueous stocks. Treated cells were incubated at 37° C. and 5% CO2 for 24 hours. At the end of the treatment period, the cells on filters were transferred to the Ussing chamber and equilibrated for 30 minutes. The short-circuit current was measured in voltage clamp-mode (Vhold=0 mV), and the entire assay was conducted at a temperature of 36° C.-36.5° C. Once the voltages stabilized, the chambers were clamped, and data were recorded by pulse readings every 5 seconds. Following baseline current stabilization, the following additions were applied and the changes in current and resistance of the cells were monitored: • 1. Benzamil to the apical chamber to inhibit ENaC sodium channel. • 2. Forskolin to both chambers to activate ΔF508-CFTR by phosphorylation. • 3. Ivacaftor or Genistein to the apical chamber to potentiate ΔF508-CFTR channel opening. • 4. CFTRinh-172 to the apical chamber to inhibit ΔF508-CFTR Cl-conductance.
# (§2) The forskolin-sensitive current and inhibitable current (that potentiated current that was blocked by CFTRinh-172) were measured as the specific activity of the ΔF508-CFTR channel, and increase in response to compound in this activity over that observed in vehicle-treated samples were identified as the correction of ΔF508-CFTR function imparted by the compound tested.
# The results are shown below in Tables 3 and 4. Compound A is 10 uM and VX-809 is 3 uM and ivacaftor is 1 uM.
# [2] = tested on: CFTR in R117H/F508del HBEs; test: Ussing measurements, R117H/F508del HBEs; format: cell-based, human; conditions: genotype R117H/F508del
# Method: as §1, with “Ussing measurements was used to” for “Ussing measurements were used to”, “a Cystic Fibrosis-causing class III” for “a Cystic fibrosis causing class I”, “Fibrosis-causing class III mutation were” for “causing class I mutation were”, “from DMSO stocks. Treated” for “from DMSO or aqueous stocks. Treated”, “and data was recorded by” for “and data were recorded by”, “the cells was monitored: •” for “the cells were monitored: •”
# as §2, with “is” for “was”
# The results are shown below in Tables 5 and 6. Compound A is 10 uM and VX-809 is 3 uM and ivacaftor is 1 uM.
# [3] = tested on: CFTR, genotype G542X/G542X; test: CFTR activity by mutation type, G542X/G542X (Table 7); format: cell-based, human
# T1 sequence (P13569 with tags, fused parts or gaps DEL508-508): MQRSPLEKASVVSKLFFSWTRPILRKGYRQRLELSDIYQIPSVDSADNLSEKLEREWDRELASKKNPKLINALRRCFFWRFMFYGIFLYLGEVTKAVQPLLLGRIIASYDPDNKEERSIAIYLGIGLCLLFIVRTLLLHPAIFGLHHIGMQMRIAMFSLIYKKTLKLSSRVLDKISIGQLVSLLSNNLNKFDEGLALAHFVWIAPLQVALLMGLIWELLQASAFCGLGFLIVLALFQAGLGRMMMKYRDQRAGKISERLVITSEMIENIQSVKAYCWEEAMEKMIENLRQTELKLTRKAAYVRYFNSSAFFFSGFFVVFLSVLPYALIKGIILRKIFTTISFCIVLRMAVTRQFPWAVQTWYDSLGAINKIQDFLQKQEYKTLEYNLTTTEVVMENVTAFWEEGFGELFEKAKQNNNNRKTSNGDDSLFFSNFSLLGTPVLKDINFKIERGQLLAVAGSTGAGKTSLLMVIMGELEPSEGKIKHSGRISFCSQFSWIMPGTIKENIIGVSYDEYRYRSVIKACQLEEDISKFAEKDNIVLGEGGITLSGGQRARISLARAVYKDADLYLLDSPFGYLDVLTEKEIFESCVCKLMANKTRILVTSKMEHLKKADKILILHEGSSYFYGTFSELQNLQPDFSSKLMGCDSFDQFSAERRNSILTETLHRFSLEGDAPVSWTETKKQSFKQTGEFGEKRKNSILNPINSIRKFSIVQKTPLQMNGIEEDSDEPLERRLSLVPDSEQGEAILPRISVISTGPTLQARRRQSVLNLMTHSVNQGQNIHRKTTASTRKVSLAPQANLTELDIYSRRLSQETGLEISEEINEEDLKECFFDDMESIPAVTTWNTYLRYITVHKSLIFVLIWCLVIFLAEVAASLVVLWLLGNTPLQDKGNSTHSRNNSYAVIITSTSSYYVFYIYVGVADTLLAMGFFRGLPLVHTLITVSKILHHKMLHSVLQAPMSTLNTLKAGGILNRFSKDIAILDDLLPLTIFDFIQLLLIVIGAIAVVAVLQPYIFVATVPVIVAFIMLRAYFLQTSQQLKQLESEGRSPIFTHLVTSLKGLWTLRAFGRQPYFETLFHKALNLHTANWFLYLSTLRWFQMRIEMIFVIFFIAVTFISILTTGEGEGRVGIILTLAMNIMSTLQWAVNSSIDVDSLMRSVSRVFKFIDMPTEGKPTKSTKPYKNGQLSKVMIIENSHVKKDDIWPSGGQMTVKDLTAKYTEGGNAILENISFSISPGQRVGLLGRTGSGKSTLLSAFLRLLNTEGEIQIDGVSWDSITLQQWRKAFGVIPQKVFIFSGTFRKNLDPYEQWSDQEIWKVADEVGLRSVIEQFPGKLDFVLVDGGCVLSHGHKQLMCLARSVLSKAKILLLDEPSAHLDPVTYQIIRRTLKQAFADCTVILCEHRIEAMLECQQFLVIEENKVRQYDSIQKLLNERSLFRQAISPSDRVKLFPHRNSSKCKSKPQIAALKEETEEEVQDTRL
smiles,measurement,setting,value
"C[C@@H](O)c1nnc([C@H]2C[C@H](NC(=O)c3cc(-c4ccccc4)no3)C2)o1 [Example 6, N-(trans-3-(5-((R)-1-hydroxyethyl)-1,3,4-oxadiazol-2-yl)cyclobutyl)-3-phenylisoxazole-5-carboxamide]","Combination with ivacaftor and VX-661, activity","[1]; compound A 10uM + ivacaftor 1uM + VX-661 3 uM, relative activity of 100% = ivacaftor and VX-661",++++ (++++ indicates activity at 10uM of >150% of the indicated relative activity treatment)
same,"Combination with ivacaftor and lumacaftor, activity","[1]; compound A 10uM + ivacaftor 1uM + lumacaftor 3 uM, relative activity of 100% = ivacaftor and lumacaftor",++++ (++++ indicates activity at 10uM of >150% of the indicated relative activity treatment)
same,Stand Alone activity,"[1]; compound A 10uM, relative activity of 100% = ivacaftor (1uM) and lumacaftor (3 uM)",+ (+ indicates activity at 10uM of 15% to <50% of the indicated relative activity treatment)
same,"Combination with ivacaftor, activity","[2]; compound A 10uM + ivacaftor 1uM, relative activity of 100% = ivacaftor",++++ (++++ indicates activity at 10uM of >150% of the indicated relative activity treatment)
same,Stand Alone activity,"[2]; compound A 10uM, relative activity of 100% = ivacaftor (1uM)",+++ (+++ indicates activity at 10uM of 100% to <150% of the indicated relative activity treatment)
same,"Combination with NB124, activity","[3]; compound A 10uM + NB124 250 ug/ml, relative activity of 100% = NB124",++++ (++++ indicates activity at 10uM of >150% of the indicated relative activity treatment)
same,Stand Alone activity,"[3]; compound A 10uM, relative activity of 100% = NB124 (250 ug/ml)",++ (++ indicates activity at 10uM of 50% to <100% of the indicated relative activity treatment)
